From patent US12660819B2, “Herbicidal derivatives” (SYNGENTA CROP PROTECTION AG, priority 2020, dated 2026)

Columns and labels:
Type in all cases: in vivo
[1] = system: Abutilon theophrasti (ABUTH); assay: Post-emergence Test (glasshouse, percentage damage to the plant); details: post-emergence spray, 1000 g/ha unless otherwise stated, evaluated after 13 days
Procedure, shortened: (§1)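 Seeds are sown in standard soil under controlled glasshouse conditions. The pots are then sprayed at 1000 g/ha, unless otherwise stated, with compound in acetone/water (50:50) containing 0.5% Tween 20. After 13 days further growth, percentage plant damage is scored from 1 (0-20%) to 5 (81-100%).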

[2] = system: Amaranthus retoflexus (AMARE); assay: as above; details: post-emergence spray, 1000 g/ha unless otherwise stated, evaluated after 13 days
Procedure, shortened: as §1

[3] = system: Echinochloa crus-galli (ECHCG); assay: as above; details: post-emergence spray, 1000 g/ha unless otherwise stated, evaluated after 13 days
Procedure, shortened: as §1

[4] = system: Ipomoea hederacea (IPOHE); assay: as above; details: post-emergence spray, 1000 g/ha unless otherwise stated, evaluated after 13 days
Procedure, shortened: (§2)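 Sown pots; spray 1000 g/ha (unless stated) in acetone/water 50:50 + 0.5% Tween 20; glasshouse 24/16 °C, 14 h light, 65% RH; watered twice daily; % damage read at 13 days, scored 1–5.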

Setaria faberi (SETFA) [5] = assay: as above; details: post-emergence spray, 1000 g/ha unless otherwise stated, evaluated after 13 days
Procedure, shortened: as §2

Zea mays (ZEAMX) [6] = assay: as above; details: post-emergence spray, 1000 g/ha unless otherwise stated, evaluated after 13 days
Procedure, shortened: as §2

[7] = system: Amaranthus retoflexus (AMARE); assay: Pre-emergence Test (glasshouse, percentage damage to the plant); details: 1000 g/ha unless otherwise stated, five-point scale
Setaria faberi (SETFA) [8] = assay: as above; details: 1000 g/ha unless otherwise stated, five-point scale
[9] = system: Echinochloa crus-galli (ECHCG); assay: as above; details: 1000 g/ha unless otherwise stated, five-point scale
[10] = system: Ipomoea hederacea (IPOHE); assay: as above; details: 1000 g/ha unless otherwise stated, five-point scale
[11] = system: Abutilon theophrasti (ABUTH); assay: as above; details: 1000 g/ha unless otherwise stated, five-point scale
Zea mays (ZEAMX) [12] = assay: as above; details: 1000 g/ha unless otherwise stated, five-point scale

Compound | Post-emergence Test ABUTH, percentage damage to the plant (five-point scale) [1] | Post-emergence Test AMARE, percentage damage to the plant (five-point scale) [2] | Post-emergence Test ECHCG, percentage damage to the plant (five-point scale) [3] | Post-emergence Test IPOHE, percentage damage to the plant (five-point scale) [4] | Post-emergence Test SETFA, percentage damage to the plant (five-point scale) (Setaria faberi (SETFA) [5]) | Post-emergence Test ZEAMX, percentage damage to the plant (five-point scale) (Zea mays (ZEAMX) [6]) | percentage damage to the plant, AMARE [7] | percentage damage to the plant, SETFA (Setaria faberi (SETFA) [8]) | percentage damage to the plant, ECHCG [9] | percentage damage to the plant, IPOHE [10] | percentage damage to the plant, ABUTH [11] | percentage damage to the plant, ZEAMX (Zea mays (ZEAMX) [12])
CCn1c(C)c(-c2cc(C)cs2)c(=O)c(C(=O)O)c1-c1ccc(Cl)cc1 [Compound 167, 2-(4-chlorophenyl)-1-ethyl-6-methyl-5-(4-methyl-2-thienyl)-4-oxo-pyridine-3-carboxylic acid] | 4 (4=61-80%) | 0 | 1 (1=0-20%) | 3 (3=41-60%) | 2 (2=21-40%) | 1 (1=0-20%) | 1 (1=0-20%) | 2 (2=21-40%) | 0 | 1 (1=0-20%) | 3 (3=41-60%) | 3 (3=41-60%)
CCn1c(C)c(-c2ccc(F)c(F)c2)c(=O)c(C(=O)O)c1-c1ccc(Cl)c(Cl)c1 [Compound 104, 2-(3,4-dichlorophenyl)-5-(3,4-difluorophenyl)-1-ethyl-6-methyl-4-oxo-pyridine-3-carboxylic acid] | 3 (3=41-60%) | 3 (3=41-60%) | 3 (3=41-60%) | 1 (1=0-20%) | 4 (4=61-80%) | 1 (1=0-20%) | 4 (4=61-80%) | 4 (4=61-80%) | 2 (2=21-40%) | 1 (1=0-20%) | 2 (2=21-40%) | 1 (1=0-20%)
CCn1c(C)c(-c2cccc(Cl)c2)c(=O)c(C(=O)O)c1-c1ccc(Cl)c(Cl)n1 [Compound 149, 5-(3-chlorophenyl)-2-(5,6-dichloro-2-pyridyl)-1-ethyl-6-methyl-4-oxo-pyridine-3-carboxylic acid] | 1 (1=0-20%) | 1 (1=0-20%) | 0 | 2 (2=21-40%) | 0 | 1 (1=0-20%) | 0 | 0 | 0 | 0 | 0 | 0
CCn1c(C)c(-c2ccc(Cl)cc2)c(=O)c(C(=O)O)c1-c1ccc(Cl)cc1 [Compound 138, 2,5-bis(4-chlorophenyl)-1-ethyl-6-methyl-4-oxo-pyridine-3-carboxylic acid] | 3 (3=41-60%) | 1 (1=0-20%) | 2 (2=21-40%) | 1 (1=0-20%) | 3 (3=41-60%) | 0 | 5 (5=81-100%) | 5 (5=81-100%) | 3 (3=41-60%) | 1 (1=0-20%) | 3 (3=41-60%) | 1 (1=0-20%)
CCn1c(C)c(-c2ccc(F)c(C#N)c2)c(=O)c(C(=O)O)c1-c1ccc(Cl)c(Cl)c1 [Compound 92, 5-(3-cyano-4-fluoro-phenyl)-2-(3,4-dichlorophenyl)-1-ethyl-6-methyl-4-oxo-pyridine-3-carboxylic acid] | 2 (2=21-40%) | 1 (1=0-20%) | 1 (1=0-20%) | 3 (3=41-60%) | 1 (1=0-20%) | 1 (1=0-20%) | 1 (1=0-20%) | 1 (1=0-20%) | 1 (1=0-20%) | 1 (1=0-20%) | 1 (1=0-20%) | 1 (1=0-20%)
